The test system of data set [1] is Phakopsora pachyrhizi EPSPS expressed in Escherichia coli strain lacking native EPSPS. Description: Zone of growth inhibition, filter paper disk on plate seeded with E. coli expressing fungal EPSPS. The format is cell-based. As for the experimental part: Glyphosate Mode of Action Against Plant Pathogenic Fungi A gene encoding EPSPS was cloned from a representative phytopathogenic fungus, in this case, from Phakopsora pachyrhizi, the causal agent of Asian Soybean Rust (“ASR”), and expressed in an Escherichia coli strain lacking the native bacterial E. coli EPSPS. Thus, EPSPS activity in the recombinant bacterial strain was due to the presence of the fungal EPSPS. Glyphosate was added to a filter paper disk and placed on a culture plate seeded with the recombinant E. coli cells, allowing for detection of a zone of growth inhibition of bacterial cells.

The test system of data set [2] is Diaporthe phaseolorum. Description: Greenhouse studies, Stem Canker of soybean, glyphosate after inoculation. The format is in vivo. As to conditions: 0.84-2.52 kg ae/ha following inoculation. As for the experimental part:
Stem Canker of soybean (STC) is caused by Diaporthe phaseolorum. Greenhouse studies were performed to determine the efficacy of timing of glyphosate application (e.g. 0.84-2.52 kg ae/ha) following inoculation with the pathogen.

Data set [3] is described as follows: Mobilization of glyphosate in planta after foliar application. The format is in vivo. From the text: Mobilization of glyphosate in planta was studied to determine the potential to impact on activity against plant diseases. About 1 day after foliar application of glyphosate about 70% of the applied glyphosate may be found on the leaf surface, where it may directly contact fungal spores or infective structures, inhibiting their growth, and killing them. About 21% of the glyphosate was found localized within the foliage where it can act to inhibit infection locally. About 9% of the applied glyphosate was transported out of the treated leaf and detected systemically (e.g. in stems and roots) at the time of testing (e.g. Feng et al. 2005). The transported fraction of applied glyphosate increases to about 40% over time, further increasing systemic fungicidal activity.

In data set [4] the test system is Brown Stem Rot (Phialaphora gregata). Description: Greenhouse studies, Brown Stem Rot, glyphosate timing and rate. The format is in vivo, soybean. As to conditions: application 4 days before infection, about 0.84-2.5 kg ae/ha. As for the experimental part:
(§1) Greenhouse studies were performed to determine the effect of glyphosate timing and rate of application in preventing or suppressing the development of BSR in soybean plants. […] Field trials were also performed. Asgrow cv. 2107 soybean plants were planted and maintained weed free with pre-emergence herbicides at recommended rates, followed by hand weeding as necessary.

The test system is the same in data set [5]. Description: Field trials, Brown Stem Rot, glyphosate (Example 4, Table 1). In kind it is in vivo, soybean. The procedure:
as §1

The subject of data set [6] is Brown Stem Rot of soybean. Description: Field studies, Brown Stem Rot: Roundup WeatherMAX, picoxystrobin, tank mix (Rup 1X = 0.84 kg ae/ha; picoxystrobin 0.125 kg ai/ha). The format is in vivo. The conditions noted are these: for BSR Foliar Symptoms (0-11 HB scale): picoxystrobin 1X at R2; for Calculated Values (% of control) Foliar Symptoms: treatment 9 (picoxystrobin 1X at R2).

Where [7] appears, read: about 1 day after foliar application.

Take `O=C(O)CNCP(=O)(O)O` [glyphosate, N-phosphonomethylglycine]: the zone of inhibition result in data set [1] (5 mg of glyphosate on filter paper disk) is listed as “about 24 mm”. Further, the “zone of growth inhibition” value in data set [1] (20 mg of glyphosate on filter paper disk) is “about 38 mm”. Also, the “prophylaxis of Soybean Stem Canker” value in data set [2] is given as “Prophylactic results, even 7 or more days post-inoculation, were seen”. In addition, in data set [3] (setting [7]), the “applied glyphosate found on the leaf surface” value is on record as “about 70%” and the “glyphosate localized within the foliage” value is given as “About 21%”. Moreover, the “applied glyphosate transported out of the treated leaf and detected systemically (stems and roots)” value in data set [3] (at the time of testing, about 1 day after foliar application) was “About 9%”. The “transported fraction of applied glyphosate” value in data set [3] (over time) is recorded as “about 40%”. Moreover, in data set [4], the “foliar incidence of BSR” value was “reduced the level of foliar incidence of the disease”. Moreover, the “suppression of BSR, as measured by foliar symptom severity” value in data set [5] (glyphosate applied at V3- R2 growth stages) is “suppression of BSR (reduced stem rot severity)”. Moreover, the “yield relative to untreated controls” value in data set [5] (treated soybean test plots) was “Increased yield”.

Regarding `CO/C=C(/C(=O)OC)c1ccccc1COc1cccc(C(F)(F)F)n1` [picoxystrobin], the results for the “BSR Foliar Symptoms (0-11 HB scale)” value in data set [6] (7-Sep), in data set [6] (14-Sep) and in data set [6] (31-Aug) were 3.6 0-11 HB scale, 6.8 0-11 HB scale and 3.0 0-11 HB scale, respectively. For the same molecule, the “Calculated Values (% of control) Foliar Symptoms” value was 72.0 % of control in data set [6] (7-Sep), 113.3 % of control in data set [6] (14-Sep) and 93.8 % of control in data set [6] (31-Aug).

The record behind these values is patent US12378571B2, “Use of glyphosate for disease suppression and yield enhancement in soybean” (Monsanto Technology LLC, priority 2009, dated 2025).
